Among the test systems are HOP-92 NSCLC; NCI/ADR-RES ovarian; UACC-257 melanoma; HT29 colon; HCT-15 colon; SK-MEL-28 melanoma; ACHN renal; MDA-N; TK-10 renal; SK-MEL-5 melanoma.
Holding throughout (assay): NCI-60 cell line screen, 48 h

From PubChem BioAssay (NCI) come the findings set out here.

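1) Cells in 96-well plates. 2) Compound, 48 h, 5 concentrations. 3) Linear interpolation between surrounding doses. 4) Unreached endpoint = highest concentration. At the TGI there is no net growth.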

Take `CC(=O)OCC1OC(OCCCOP(=O)(OCCC#N)OCC2OC(n3cnc4c(N)ncnc43)C(OC(=O)c3ccccc3)C2OC(=O)c2ccccc2)C(OC(C)=O)C(OC(C)=O)C1OC(C)=O` (stereo not given): the TGI in the experiment on HOP-92 NSCLC, in the experiment on NCI/ADR-RES ovarian, in the experiment with UACC-257 melanoma, in the experiment on HT29 colon, with HCT-15 colon and in the experiment on SK-MEL-28 melanoma was over 100 µM in each case. For the same molecule, the TGI with ACHN renal, with MDA-N, in the experiment with TK-10 renal and with SK-MEL-5 melanoma was over 100 µM in each case.
For the molecule `Nc1nc(Sc2ccc([N+](=O)[O-])c3nonc23)c2[nH]cnc2n1`, the TGI with HOP-92 NSCLC came to 10.5 µM; with NCI/ADR-RES ovarian, 25.4 µM; in the experiment on UACC-257 melanoma, 9.14 µM; with HT29 colon, 20.9 µM; with HCT-15 colon it was 14.1 µM; in the experiment with SK-MEL-28 melanoma it was 22.3 µM. For the same molecule, the TGI in the experiment on ACHN renal turned out to be 10.4 µM; in the experiment with MDA-N, 12.2 µM; in the experiment with TK-10 renal, 6.4 µM; with SK-MEL-5 melanoma, 7.8 µM.
Consider `S=c1ncc(-c2cncc(-c3cnc(=S)[nH]c3)n2)c[nH]1`, for which the TGI in the experiment with HOP-92 NSCLC, in the experiment with NCI/ADR-RES ovarian, in the experiment on UACC-257 melanoma, with HT29 colon, with HCT-15 colon and in the experiment on SK-MEL-28 melanoma was over 100 µM throughout. The TGI in the experiment on ACHN renal, with MDA-N, in the experiment on TK-10 renal and with SK-MEL-5 melanoma was over 100 µM each time.
Regarding `Nc1nc(Cl)c(CO)c(NCC2(CO)CCC2)n1`, the TGI with HOP-92 NSCLC, with NCI/ADR-RES ovarian, in the experiment on UACC-257 melanoma, with HT29 colon, in the experiment on HCT-15 colon and with SK-MEL-28 melanoma was over 100 µM each time. The TGI with ACHN renal, in the experiment on MDA-N, with TK-10 renal and with SK-MEL-5 melanoma was over 100 µM throughout.
Take `CCOC(=O)C(O)(CC1=NC(C(=O)OC)(C(=O)OC)C(c2cccc(C=O)c2)O1)C(=O)OCC` (stereo not given): the TGI in the experiment on HOP-92 NSCLC, in the experiment on NCI/ADR-RES ovarian, with UACC-257 melanoma, in the experiment with HT29 colon, with HCT-15 colon and in the experiment with SK-MEL-28 melanoma was over 100 µM throughout. The TGI in the experiment with ACHN renal, with MDA-N, in the experiment with TK-10 renal and in the experiment on SK-MEL-5 melanoma was over 100 µM in each case.
Turning to `CN(C)S(=O)(=O)c1ccc2[nH]c(O)c(C3=Nc4ccccc4C3=O)c2c1`, the TGI in the experiment with HOP-92 NSCLC is 46.8 µM; in the experiment on NCI/ADR-RES ovarian it was over 100 µM; in the experiment with UACC-257 melanoma it was over 100 µM; with HT29 colon, over 100 µM; in the experiment with HCT-15 colon, over 100 µM; in the experiment with SK-MEL-28 melanoma, over 100 µM. The TGI in the experiment on ACHN renal was 33.7 µM; in the experiment on MDA-N, over 100 µM; with TK-10 renal it was 40 µM; with SK-MEL-5 melanoma it was over 100 µM.
`O=C1c2cc3c(cc2NC(c2ccccc2F)C1O)OCO3` (stereo not given): the TGI in the experiment on HOP-92 NSCLC is over 100 µM; in the experiment with NCI/ADR-RES ovarian, over 64.7 µM; with UACC-257 melanoma, over 100 µM; in the experiment on HT29 colon, 43.3 µM; in the experiment with HCT-15 colon it was over 100 µM; in the experiment with SK-MEL-28 melanoma it was over 79.4 µM. In addition, the TGI in the experiment on ACHN renal was over 100 µM; with MDA-N, 8.29 µM; with TK-10 renal, 73.1 µM; with SK-MEL-5 melanoma it was over 100 µM.
Take `Nc1nc(N)c2nc(CN(C=O)c3ccc(C(=O)O)cc3)cnc2n1`: the TGI in the experiment on HOP-92 NSCLC was over 100 µM; in the experiment with NCI/ADR-RES ovarian, over 45.2 µM; in the experiment on UACC-257 melanoma it was over 100 µM; with HT29 colon, over 100 µM; with HCT-15 colon it was over 100 µM; in the experiment on SK-MEL-28 melanoma it was over 100 µM. The TGI with ACHN renal, with MDA-N, in the experiment on TK-10 renal and in the experiment with SK-MEL-5 melanoma was over 100 µM in each case.
As to `O=c1c(-c2nc3ccccc3c3ccccc3c2=O)nc2ccccc2c2ccccc12`, the TGI with HOP-92 NSCLC, with NCI/ADR-RES ovarian, in the experiment with UACC-257 melanoma, in the experiment on HT29 colon, with HCT-15 colon and in the experiment with SK-MEL-28 melanoma was over 100 µM in each case. For the same molecule, the TGI is over 100 µM in the experiment on ACHN renal, 69 µM in the experiment on MDA-N, over 100 µM in the experiment on TK-10 renal and 86.2 µM with SK-MEL-5 melanoma.
As to `C=CCOCC1C2CCC3(OCCO3)C21` (stereo not given), the TGI with HOP-92 NSCLC, in the experiment on NCI/ADR-RES ovarian, in the experiment on UACC-257 melanoma, in the experiment with HT29 colon, in the experiment with HCT-15 colon and in the experiment on SK-MEL-28 melanoma was over 100 µM each time. Besides, the TGI with ACHN renal, in the experiment on MDA-N, in the experiment with TK-10 renal and in the experiment on SK-MEL-5 melanoma was over 100 µM throughout.
For the molecule `CN(CCN)[C@H](CSSC[C@@H](c1ccccc1O)N(C)CCN)c1ccccc1O`, the TGI in the experiment on HOP-92 NSCLC came to 35.6 µM; in the experiment with NCI/ADR-RES ovarian it was 23.5 µM; in the experiment on UACC-257 melanoma, 32.8 µM; in the experiment on HT29 colon, 21.3 µM; in the experiment with HCT-15 colon, 18.6 µM; in the experiment with SK-MEL-28 melanoma, 33.5 µM. For the same molecule, the TGI with ACHN renal worked out at 22.6 µM; in the experiment with MDA-N, 24.6 µM; in the experiment on TK-10 renal it was 30.7 µM; in the experiment with SK-MEL-5 melanoma, 24.4 µM.
Take `Cc1ccc(C2=CC(=O)/C(=C\C(=O)c3ccc(Br)cc3)O2)c(C)c1`: the TGI in the experiment with HOP-92 NSCLC was 19.4 µM; in the experiment with NCI/ADR-RES ovarian, 29.4 µM; in the experiment with UACC-257 melanoma, over 48.6 µM; in the experiment on HT29 colon it was 17.6 µM; in the experiment on HCT-15 colon, 36.9 µM; in the experiment with SK-MEL-28 melanoma, 40.1 µM. The TGI with ACHN renal came to 12.3 µM; with MDA-N it was 19.9 µM; in the experiment with TK-10 renal it was 15.9 µM; in the experiment with SK-MEL-5 melanoma, 41.5 µM.
Turning to `NCCCN(CCCCN(CCCN)CCCc1ccccc1)CCCc1ccccc1`, the TGI with HOP-92 NSCLC turned out to be 24.1 µM; in the experiment on NCI/ADR-RES ovarian it was 43.1 µM; in the experiment on UACC-257 melanoma, 3.45 µM; in the experiment on HT29 colon, 4.32 µM; in the experiment on HCT-15 colon, 4.24 µM; in the experiment with SK-MEL-28 melanoma, 2.98 µM. Further, the TGI turned out to be 9.24 µM in the experiment on ACHN renal, 3.23 µM in the experiment on MDA-N, 25.9 µM in the experiment with TK-10 renal and 3.36 µM with SK-MEL-5 melanoma.
